Test: molar heat capacity at constant pressure; xn = mol fraction of the nth substance listed
Conditions: 101.3 kPa, Liquid, Large sample (1 g) DSC

CCCCn1cc[n+](C)c1.[Br-] [1-butyl-3-methylimidazolium bromide] + O
molar heat capacity at constant pressure [J/K/mol]
Conditions | x1 = 0.1 | x1 = 0.2 | x1 = 0.3 | x1 = 0.4 | x1 = 0.5 | x1 = 0.6 | x1 = 1
303.2 K | 102.2 | 123.4 | 144.5 | 165 | 186.7 | 209.6 | –
308.2 K | 102.5 | 124.1 | 145.4 | 166.1 | 188 | 211.2 | –
313.2 K | 103 | 124.9 | 146.3 | 167.1 | 189.2 | 212.9 | –
318.2 K | 103.5 | 125.8 | 147.2 | 168.1 | 190.7 | 214.5 | –
323.2 K | 104 | 126.6 | 148.2 | 169.2 | 191.8 | 216.2 | –
328.2 K | 104.5 | 127.5 | 149.2 | 170.4 | 193.3 | 217.9 | –
333.2 K | 104.8 | 128.3 | 150.1 | 171.6 | 194.6 | 219.5 | –
338.2 K | 105.4 | 129.2 | 151.1 | 172.9 | 196.1 | 221.3 | –
343.2 K | 105.8 | 130 | 152.1 | 173.9 | 197.3 | 223.1 | –
348.2 K | 106.3 | 131.1 | 153.1 | 175.2 | 198.6 | 224.9 | –
353.2 K | 106.8 | 131.9 | 154.1 | 176.2 | 200 | 226.5 | 334.8
358.2 K | – | – | – | – | – | – | 338.1
363.2 K | – | – | – | – | – | – | 341.1
368.2 K | – | – | – | – | – | – | 344.6
373.2 K | – | – | – | – | – | – | 347.5
378.2 K | – | – | – | – | – | – | 350.6
383.2 K | – | – | – | – | – | – | 354.1
388.2 K | – | – | – | – | – | – | 356.7
393.2 K | – | – | – | – | – | – | 359.9
398.2 K | – | – | – | – | – | – | 363.4
403.2 K | – | – | – | – | – | – | 366.4

Reference: the NIST ThermoML archive (doi:10.1016/j.tca.2011.02.027)
